According to patent US12509482B2, “3′-ketoglycoside compound for the slow release of a volatile alcohol” (GLYCOSCIENCE, S.L., priority 2020, dated 2025):
Where a name gives a salt, the structure may show the parent alone. Each block holds one compound with its values, some of them ahead of it.

Key:
Format in all cases: physicochemical
[1] = Description: alcohol release from model compounds (III), (IV) and compound (V) in buffer, water and skin washings; details: 20 mg/mL mixture; after 3 d
[2] = Example 20: release of (S)-α-terpineol from (S)-α-terpineol-O-β-D-3′-ketoglucopyranoside, 0.1 M deuterated phosphate buffer, 33% D6-DMSO, 32° C.
Method: In this example the rate of release of (S)-α-terpineol from (2R,3R,5S)-3,5-dihydroxy-2-(hydroxymethyl)-6-((5-(2-hydroxypropan-2-yl)-2-methylcyclohexyl)oxy) tetrahydro-4H-pyran-4-one ((S)-α-terpineol-O-β-D-3′-ketoglucopyranoside) in 0.1 M deuterated phosphate buffer solutions of differing pH containing 33% D6-DMSO was determined.
(§1) 0.1 M of pH 5.8 and 7.4 stock buffered solutions of sodium dihydrogen phosphate and disodium hydrogen phosphate were prepared in deuterated water (D2O).
A stock solution of 10 mg of (S)-α-terpineol-O-β-D-3′-ketoglucopyranoside in 0.5 mL of D6-DMSO were prepared.
(§2) To two parallel reaction vials, where indicated in the reaction table below, was added 0.20 mL of the glycoside substrate solutions in D6-DMSO and 0.40 mL of low or high pH 0.1M phosphate buffer in D2O and the mixtures incubated by shaking at 32° C. After times indicated in table below, the mixtures where analysed by ^1H-NMR in a 400 MHz instrument.

[3] = Example 15: release of carvacrol from carvacrol-O-β-D-3′-ketoglucopyranoside, 0.1 M deuterated phosphate buffer, 20% D6-DMSO, 32° C.
Method: In this example the rate of release of carvacrol from ((2R,3R,5S)-3,5-dihydroxy-2-(hydroxymethyl)-6-(5-isopropyl-2-methylphenoxy)tetrahydro-4H-pyran-4-one (carvacrol-O-β-D-3′-ketoglucopyranoside) in 0.1 M deuterated phosphate buffer solutions of differing pH containing 20% D6-DMSO was determined. 0.1 M of pH 5.8 and 7.4 stock buffered solutions of sodium dihydrogen phosphate and disodium hydrogen phosphate were prepared in deuterated water (D2O).
A stock solution of 15 mg of carvacrol-O-β-D-3′ketoglucopyranoside in 1.0 mL of D6-DMSO were prepared.
as §2, with “D6-DMSO and […] of” for “D6-DMSO and 0.40 mL of”, “buffer in D2O or D2O and” for “buffer in D2O and”

[4] = Example 28: release of methanol from methyl-β-3′-ketoglucuronide methyl ester, 0.1 M deuterated phosphate buffer, 10% D6-DMSO, 32° C.
Method: In this example the rate of release of methanol from methyl (2R,3R,5S,6S)-3,5-dihydroxy-6-methoxy-4-oxotetrahydro-2H-pyran-2-carboxylate (methyl-β-3′-ketoglucuronide methyl ester) in D2O containing 10% D6-DMSO or in 0.1 M deuterated phosphate buffer solutions of differing pH containing 10% D6-DMSO or in D2O was determined.
as §1
A stock solution of 20 mg of methyl-β-3′-ketoglucuronide methyl ester in 0.25 mL of D6-DMSO were prepared.
as §2, with “0.05” for “0.20”, “0.55” for “0.40”

[5] = Example 29: release of phenol from phenyl-O-β-D-3′-keto-6′-sulphatoglucopyranoside pyridinium salt, 0.1 M deuterated phosphate buffer, 15% D6-DMSO, 32° C.
Method: In this example the rate of release of phenol from ((2R,3R,5S,6S)-3,5-dihydroxy-4-oxo-6-phenoxytetrahydro-2H-pyran-2-yl)methyl hydrogen sulfate pyridinium salt (phenyl-O-β-D-3′-keto-6′-sulphatoglucopyranoside pyridinium salt) in 0.1 M deuterated phosphate buffer solutions of differing pH containing 15% D6-DMSO was determined.
as §1
A stock solution of 20 mg of phenyl-O-β-D-3′-keto-6′-sulphatoglucopyranoside in 0.5 mL of D6-DMSO were prepared.
as §2, with “0.10” for “0.20”, “0.60” for “0.40”

SMILES: Cc1ccc(C(C)C)cc1O[C@@H]1O[C@H](CO)[C@@H](O)C(=O)[C@H]1O [carvacrol-O-β-D-3′-ketoglucopyranoside, (2R,3R,5S,6S)-3,5-dihydroxy-2-(hydroxymethyl)-6-(5-isopropyl-2-methylphenoxy)tetrahydro-4H-pyran-4-one]
pH dependence of carvacrol release (in words) ([3]; 32° C.): only slowly degraded at pH 5.8, but releases carvacrol at a significantly higher rate at pH 7.4
% Conversion by 1H-NMR ([3]; pH 5.8, 1 h): 2%
% Conversion by 1H-NMR ([3]; pH 5.8, 5 h): <5%
% Conversion by 1H-NMR ([3]; pH 5.8, 23 h): <5%
% Conversion by 1H-NMR ([3]; pH 5.8, 69 h): <5%
% Conversion by 1H-NMR ([3]; pH 7.4, 1 h): 8%
% Conversion by 1H-NMR ([3]; pH 7.4, 5 h): 14%
% Conversion by 1H-NMR ([3]; pH 7.4, 23 h): 83%
% Conversion by 1H-NMR ([3]; pH 7.4, 69 h): 100%

SMILES: COC(=O)[C@H]1OC(OC)[C@H](O)C(=O)[C@@H]1O (stereo in doubt) [methyl-β-3′-ketoglucuronide methyl ester, methyl (2S,3R,5S,6S)-3,5-dihydroxy-6-methoxy-4-oxotetrahydro-2H-pyran-2-carboxylate]
methanol release (in words) ([4]; 32° C.): generates methanol at both pH 5.8 and pH 7.4
% Conversion by 1H-NMR ([4]; pH 5.8, 0 h): 0%
% Conversion by 1H-NMR ([4]; pH 5.8, 5 h): 2%
% Conversion by 1H-NMR ([4]; pH 5.8, 20 h): 7%
% Conversion by 1H-NMR ([4]; pH 5.8, 163 h (printed under the 72 h column)): 23%
% Conversion by 1H-NMR ([4]; pH 7.4, 0 h): 0%
% Conversion by 1H-NMR ([4]; pH 7.4, 5 h): 15%
% Conversion by 1H-NMR ([4]; pH 7.4, 20 h): 38%
% Conversion by 1H-NMR ([4]; pH 7.4, 72 h): 100%

SMILES: O=C1[C@@H](O)[C@H](Oc2ccccc2)O[C@H](COS(=O)(=O)O)[C@H]1O [((2R,3R,5S,6S)-3,5-dihydroxy-4-oxo-6-phenoxytetrahydro-2H-pyran-2-yl)methyl hydrogen sulfate pyridinium salt]
phenol release (in words) ([5]; 32° C.): generates phenol at pH 7.4
% Conversion by 1H-NMR ([5]; Reaction 1, pH 5.8, 0 h): 1%
% Conversion by 1H-NMR ([5]; Reaction 1, pH 5.8, 5 h): 2%
% Conversion by 1H-NMR ([5]; Reaction 1, pH 5.8, 20 h): 2%
% Conversion by 1H-NMR ([5]; Reaction 1, pH 5.8, 100 h): 2%
% Conversion by 1H-NMR ([5]; Reaction 2 (0.60 mL of pH 5.8 buffer), 0 h): 4%
% Conversion by 1H-NMR ([5]; Reaction 2 (0.60 mL of pH 5.8 buffer), 5 h): 15%
% Conversion by 1H-NMR ([5]; Reaction 2 (0.60 mL of pH 5.8 buffer), 20 h): 38%
% Conversion by 1H-NMR ([5]; Reaction 2 (0.60 mL of pH 5.8 buffer), 100 h): 84%

Now from value to compound, other results behind:

aroma of geraniol on opening the stoppered reaction vessel [1]: not present
SMILES: CC(C)=CCC/C(C)=C/CO[C@@H]1O[C@H](CO)[C@@H](O)[C@H](O)[C@H]1O [geranyl-O-β-D-glucopyranoside]

% Conversion by 1H-NMR ([2]; pH 5.8, 0 h): 0%
% Conversion by 1H-NMR ([2]; pH 5.8, 3 h): 0%
% Conversion by 1H-NMR ([2]; pH 5.8, 20 h): 0%
% Conversion by 1H-NMR ([2]; pH 5.8, 95 h): 0%
% Conversion by 1H-NMR ([2]; pH 7.4, 0 h): 0%
% Conversion by 1H-NMR ([2]; pH 7.4, 3 h): 5%
% Conversion by 1H-NMR ([2]; pH 7.4, 20 h): 28%
% Conversion by 1H-NMR ([2]; pH 7.4, 95 h): 77%
% Conversion by 1H-NMR ([2]; pH 7.4, column head 167): 85%
SMILES: CC1=CC[C@@H](C(C)(C)O[C@@H]2O[C@H](CO)[C@@H](O)C(=O)[C@H]2O)CC1 [(2R,3R,5S,6S)-3,5-dihydroxy-2-(hydroxymethyl)-6-((2-((S)-4-methylcyclohex-3-en-1-yl)propan-2-yl)oxy)tetrahydro-4H-pyran-4-one]
pH dependence of (S)-α-terpineol release (in words) ([2]; 32° C.): only slowly degraded at pH 5.8, but releases (S)-α-terpineol at a significantly higher rate at pH 7.4
